Assays:
Format in all cases: in vivo
[1] = test system: larvae of the southern green stink bug (Nezara viridula); experiment: Nezara viridula spray test; details: 96 h, after 4 days, barley plants; for mortality at 100 g/ha: application rate 100 g/ha; for mortality at 500 g/ha: application rate 500 g/ha, read-out: activity (mortality)
How it was run: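 Barley plants sprayed with the active compound in emulsifier-containing water, then infested with stink bug larvae. Mortality scored in % after 4 days, with 100% meaning all insects killed.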

[2] = test system: green peach aphid (Myzus persicae); experiment: Myzus persicae spray test; details: foliar, 120 h, after 5 days, Chinese cabbage leaf disks; for mortality at 100 g/ha: application rate 100 g/ha, read-out: activity (mortality)
How it was run: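 Percent kill was recorded 5 days after spraying. Test solutions, prepared with solvent and diluted in 1000 ppm emulsifier water, were applied to Brassica pekinensis leaf disks carrying mixed-instar green peach aphids.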

[3] = test system: larvae of the banded cucumber beetle (Diabrotica balteata); experiment: Diabrotica balteata spray test; details: 168 h, after 7 days, wheat seeds, read-out: activity (efficacy: seedlings grown); for pest or weed control at 32 µg/disc, 100 g/ha: application rate 100 g/ha (=32 μg/well)
How it was run: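 Efficacy (%) read 7 days after infesting treated seedlings with 10-20 banded cucumber beetle larvae, 100% meaning growth as in uninfected untreated control and 0% no growth. Test solutions in water containing 1000 ppm emulsifier were sprayed onto wheat seeds germinated for 1 day on agar.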

[4] = test system: adult brown dog ticks (Rhipicephalus sanguineus); experiment: Rhipicephalus sanguineus in-vitro contact test, adult brown dog ticks; details: application rate 5 μg/cm^2 (=500 g/ha), after 48 hours, read-out: activity (efficacy: ticks dead or moribund)
How it was run: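 Glass tubes are coated with compound dissolved in acetone, a 900 ppm solution yielding 5 μg/cm^2 on the inner surface. Adult ticks (5-10 per tube) are kept on the dry film at room temperature for 48 h, then those unable to escape 45-50° C heat are counted as dead or moribund.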

[5] = test system: adult flies Musca domestica strain WHO-N; experiment: Musca domestica test (MUSCDO surface treatment & contact assay); details: 24 hours after contact, read-out: efficacy (mortality); for mortality at 4 mg/m2: surface concentration 4 mg/m^2, exposure 30 minutes; for mortality at 20 mg/m2: surface concentration 20 mg/m^2, exposure 30 minutes
How it was run: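 Compound dissolved at 2 mg/ml in acetone with 2000 ppm RME, applied to glazed tile and dried; adult flies exposed on the surface for 30 min. Percent mortality scored 24 h after contact.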

[6] = test system: adult mosquitoes Aedes aegypti strain MONHEIM; experiment: Aedes aegypti test (AEDSAE surface treatment & contact assay); details: 24 hours after contact, read-out: efficacy (mortality); for mortality at 4 mg/m2: surface concentration 4 mg/m^2, exposure 30 minutes; for mortality at 20 mg/m2: surface concentration 20 mg/m^2, exposure 30 minutes
How it was run: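 Compound in acetone (2 mg/ml) with 2000 ppm RME dried onto glazed tile; adults exposed to the treated surface for 30 min. Percent mortality scored 24 h after contact.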

[7] = test system: Rhipicephalus (Boophilus) microplus larvae (strain Parkhurst, resistant against synthetic pyrethroids); experiment: Rhipicephalus (Boophilus) microplus in-vitro contact test, larval cattle tick; details: after 48 hours, read-out: activity (efficacy: larvae dead or moribund); for pest or weed control at 1 µg/cm2, 100 g/ha: application rate 1 μg/cm^2 (=100 g/ha); for pest or weed control at 5 µg/cm2, 500 g/ha: application rate 5 μg/cm^2 (=500 g/ha)
How it was run: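 Pyrethroid-resistant Parkhurst larvae, 20–50 per tube, were kept 48 h at 27 °C and 85% relative humidity in glass tubes whose inner walls carried a dried acetone film of compound (900 ppm giving 5 μg/cm^2). Dead or moribund larvae, judged by loss of negative geotactic behavior, set percent efficacy.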

[8] = test system: adult unfed cat fleas (Ctenocephalides felis); experiment: Ctenocephalides felis oral test; details: 48 h, read-out: activity (mortality)
How it was run: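 About 20 adult unfed cat fleas fed through parafilm on citrated cattle blood containing compound (from a DMSO concentrate). Blood held at 37° C, fleas at room temperature. Mortality in % scored after 2 days.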

SMILES	mortality at 100 g/ha [1]	mortality at 500 g/ha [1]	mortality at 100 g/ha [2]	mortality at 500 g/ha ([2]; application rate 500 g/ha)	pest or weed control at 32 µg/disc, 100 g/ha [3]	pest or weed control at 160 µg/disc, 500 g/ha ([3]; application rate 500 g/ha (=160 μg/well))	pest or weed control at 5 µg/cm2, 500 g/ha [4]	mortality at 4 mg/m2 [5]	mortality at 20 mg/m2 [5]	mortality at 4 mg/m2 [6]	mortality at 20 mg/m2 [6]	pest or weed control at 1 µg/cm2, 100 g/ha [7]	pest or weed control at 5 µg/cm2, 500 g/ha [7]	mortality at 100 ppm [8]
C[C@H](NC(=O)c1cc(C(F)(F)F)cc(C(F)(F)F)c1)c1ncnn1-c1ccc(C(=O)N2CCOCC2)cn1 [Example I-2]	100%	100%	100%	100%	100%	100%	100%	80 to 100%	80 to 100%	80 to 100%	80 to 100%	100%	100%	–
Cc1nc([C@H](C)NC(=O)c2cc(C(F)(F)F)cc(C(F)(F)F)c2)n(-c2ncc(C(=O)N3CCOCC3)s2)n1 [Example I-4]	–	–	90%	–	100%	–	100%	80 to 100%	–	–	80 to 100%	100%	100%	100%
CC1CN(C(=O)c2ccc(-n3ncnc3[C@H](C)NC(=O)c3cc(C(F)(F)F)cc(C(F)(F)F)c3)nc2)CC(C)O1 (stereo partly shown) [Example I-5]	–	–	100%	–	–	–	100%	80 to 100%	80 to 100%	80 to 100%	80 to 100%	100%	100%	100%
COC1CCCN(C(=O)c2ccc(-n3ncnc3[C@H](C)NC(=O)c3cc(C(F)(F)F)cc(C(F)(F)F)c3)nc2)C1 (stereo partly shown) [Example I-8]	90%	–	90%	–	–	–	100%	–	80 to 100%	–	80 to 100%	100%	100%	100%
Cc1nc([C@H](C)NC(=O)c2cc(C(F)(F)F)cc(C(F)(F)F)c2)n(-c2ccc(C(=O)N3CCOCC3)cn2)n1 [Example I-9, N-[(1S)-1-{3-methyl-1-[5-(morpholin-4-ylcarbonyl)pyridin-2-yl]-1H-1,2,4-triazol-5-yl}ethyl]-3,5-bis(trifluoromethyl)benzamide]	100%	–	100%	–	100%	–	100%	80 to 100%	80 to 100%	80 to 100%	80 to 100%	100%	100%	–
C[C@H](NC(=O)c1cc(C(F)(F)F)cc(C(F)(F)F)c1)c1ncnn1-c1ccc(C(=O)N2CCCC2)cn1 [Example I-11]	100%	–	90%	–	80%	–	100%	–	80 to 100%	80 to 100%	80 to 100%	100%	100%	–
COC1CN(C(=O)c2ccc(-n3ncnc3[C@H](C)NC(=O)c3cc(C(F)(F)F)cc(C(F)(F)F)c3)nc2)C1 [Example I-15]	–	–	90%	–	80%	–	100%	–	80 to 100%	–	80 to 100%	100%	100%	100%
Cc1nc([C@H](C)NC(=O)c2cc(Cl)cc(C(F)(F)F)c2)n(-c2ccc(C(=O)N3CC(C)OC(C)C3)cn2)n1 (stereo partly shown) [Example I-29]	90%	–	90%	–	100%	–	100%	–	80 to 100%	80 to 100%	80 to 100%	100%	100%	100%
C[C@@H]1CN(C(=O)c2ccc(-n3ncnc3[C@H](C)NC(=O)c3cc(Cl)cc(C(F)(F)F)c3)nc2)C[C@H](C)O1 [Example I-31]	90%	–	100%	–	100%	–	100%	–	80 to 100%	80 to 100%	80 to 100%	100%	100%	100%
C[C@H](NC(=O)c1cc(Cl)cc(C(F)(F)F)c1)c1ncnn1-c1ccc(C(=O)N2CCS(=O)(=O)CC2)cn1 [Example I-35]	100%	–	90%	–	100%	–	100%	–	–	80 to 100%	80 to 100%	100%	100%	100%
C[C@H](NC(=O)c1cc(Cl)cc(C(F)(F)F)c1)c1ncnn1-c1ccc(C(=O)N2CCSCC2)cn1 [Example I-36]	100%	–	100%	–	80%	–	100%	80 to 100%	80 to 100%	80 to 100%	80 to 100%	100%	100%	100%
Cc1nc([C@H](C)NC(=O)c2cc(C(F)(F)F)cc(C(F)(F)F)c2)n(-c2ccc(C(=O)N3C[C@@H](C)O[C@@H](C)C3)cn2)n1 [Example I-45]	100%	–	100%	–	100%	–	100%	80 to 100%	80 to 100%	–	80 to 100%	100%	100%	100%
C[C@@H]1CN(C(=O)c2ccc(-n3ncnc3[C@H](C)NC(=O)c3cc(C(F)(F)F)cc(C(F)(F)F)c3)nc2)CCO1 [Example I-69]	–	–	90%	–	100%	–	100%	80 to 100%	80 to 100%	–	80 to 100%	100%	100%	–
C[C@H](NC(=O)c1cc(C(F)(F)F)cc(C(F)(F)F)c1)c1ncnn1-c1ccc(C(=O)N2CCS(=O)(=O)CC2)cn1 [Example I-75]	–	100%	100%	–	100%	–	100%	80 to 100%	80 to 100%	80 to 100%	80 to 100%	100%	100%	–
Cc1nc([C@H](C)NC(=O)c2cc(C(F)(F)F)cc(C(F)(F)F)c2)n(-c2ccc(C(=O)N3CCS(=O)(=O)CC3)cn2)n1 [Example I-76]	–	100%	90%	–	–	–	100%	80 to 100%	80 to 100%	80 to 100%	80 to 100%	100%	100%	–
C[C@@H]1CN(C(=O)c2ccc(-n3ncnc3[C@H](C)NC(=O)c3cc(OC(F)(F)F)cc(C4CC4)c3)nc2)C[C@H](C)O1 [Example I-114]	–	–	100%	–	100%	–	100%	80 to 100%	80 to 100%	–	80 to 100%	100%	100%	100%
